Legend:
[1] = tested on: human panelists, savory taste; experiment: Savory taste test with trained human panel (difference from reference); assay type: in vivo; settings: for Taste Data: cpd concentration at which 12 mM MSG + cpd is as strong as 12 mM MSG + 100 μM IMP: with 12 mM MSG, reference 12 mM MSG + 100 μM IMP
Method: General Panelist Selection: Basic screening of sensory taste testers: Potential panelists were tested for their abilities to rank and rate intensities of solutions representing the five basic tastes. Panelists ranked and rated intensity of five different concentrations of each of the five following compounds: sucrose (sweet), sodium chloride (salty), citric acid (sour), caffeine (bitter), and monosodium glutamate (savory). In order to be selected for participation in testing, panelists needed to correctly rank and rate samples for intensity, with a reasonable number of errors.
Preliminary Taste Tests: The panelists selected in the above procedure were deemed qualified for performing Preliminary Taste Testing procedures. The preliminary taste tests are used to evaluate new compounds for intensity of basic tastes and off-tastes. A small group of panelists (n=5) taste approximately 5 concentrations of the compound (range typically between 1-100 μM, in half-log cycles, e.g., 1, 3, 10, 30, and 100 μM) in water and in a solution of 12 mM MSG to evaluate enhancement. Panelists rate the five basic tastes (sweet, salty, sour, bitter, and savory) as well as off-tastes (such as chemical, metallic, sulfur) on a labeled magnitude scale. Samples are served in 10 mL portions at room temperature. The purpose of the test is to determine the highest concentration at which there is no objectionable off-taste, and determine if obvious savory taste or enhancement of savory taste exists at any of the concentrations tested.
Trained Panelist Selection: A trained expert panel was used to further evaluate compounds that had been tested with the preliminary taste test.
Panelists for the trained panel were selected from the larger group of qualifying taste panelists. Panelists were further trained on savory taste by ranking and rating experiments using MSG and IMP combinations. Panelists completed a series of ranking, rating, and difference from reference tests with savory solutions. In ranking and rating experiments, panelists evaluated easy MSG concentrations (0, 6, 18, 36 mM) and more difficult MSG concentrations (3, 6, 12, 18 mM MSG) in water.
Compound testing with Trained Panel: Compounds tested by the trained panel were evaluated in difference from reference experiments. […] Test samples were solutions with varying amounts of MSG, IMP, and the compound. Typically, each session compares the reference sample to numerous test samples. […] Compounds were tested against the reference in samples with and without 12 mM MSG. All samples were presented in 10 ml volumes at room temperature. Two sessions were completed for each compound tested to evaluate panel reproducibility.

[2] = tested on: external tasters; experiment: Cajun BBQ potato chips focus group taste test; assay type: in vivo, human; settings: chips with 3 ppm compound; eleven panelists
Method: Two solid savory flavor concentrate compositions were prepared by spray drying procedures equivalent to those reported in Example 35. One savory flavor concentrate sample, comprising 0.01% (wt/wt) of the compound of Example 1 was prepared via from the compound of Example 1, Neobee M-5 medium chain triglycerides, N-Lok 1930 modified food starch, and maltodextrin. Another savory flavor concentrate sample, comprising 0.01% (wt/wt) of the compound of Example 24 was similarly prepared via from the compound of Example 24, Neobee M-5 medium chain triglycerides, N-Lok 1930 modified food starch, and maltodextrin. A basic dry seasoning mix for providing Cajun flavor for the chips was prepared by dry blending the ingredients in Table 38-1 using a […] blender for 5 minutes at 40-80 rpms using a wire whip attachment. Kettle® Unsalted potato chips were hand broken into reasonably uniform 1⁄2''×1⁄2'' pieces and placed in a polyethylene 26.7 cm×27.9 cm non-vented food bag. The chips were then heated in an Amana Commercial 1200 watt microwave for 20 seconds to release oils, and so the seasoning would adhere to the chips. […] The panelists evaluated the four sample types of Cajun BBQ chips in a Focus Group taste test procedure and were instructed to write comments on several attributes: sweet, BBQ, Cajun spice, pepper, onion, salt, potato, umami, off tastes, other, and liking or disliking. […]

Structure (SMILES)	Taste Data: cpd concentration at which 12 mM MSG + cpd is as strong as 12 mM MSG + 100 μM IMP [1]	Panelists reporting higher intensity of Cajun spice and pepper flavors [2]	Taste Data: cpd concentration as strong as 12 mM MSG ([1]; compound alone, without MSG)
CCCC(CCC)NC(=O)c1ccc2c(c1)OCO2 [Example 1, N-(heptan-4-yl)benzo[d][1,3]dioxole-5-carboxamide]	12 mM MSG + 3 μM cpd as	9/11	–
COc1ccc(CNC(=O)C(=O)NCCc2ccccn2)c(OC)c1 [Example 24, N-(2,4-Dimethoxy-benzyl)-N′-(2-pyridin-2-yl-ethyl)-oxalamide]	12 mM MSG + 1 μM cpd as	9/11	1 μM cpd as strong as
